Here are results for 4 molecules from BindingDB's records for doi:10.1016/S0960-894X(01)80247-X (1994).

The target in assay [1] is T1, Endothelin receptor type B (Rattus norvegicus, UniProt P21451).
T1 sequence (P21451 whole entry): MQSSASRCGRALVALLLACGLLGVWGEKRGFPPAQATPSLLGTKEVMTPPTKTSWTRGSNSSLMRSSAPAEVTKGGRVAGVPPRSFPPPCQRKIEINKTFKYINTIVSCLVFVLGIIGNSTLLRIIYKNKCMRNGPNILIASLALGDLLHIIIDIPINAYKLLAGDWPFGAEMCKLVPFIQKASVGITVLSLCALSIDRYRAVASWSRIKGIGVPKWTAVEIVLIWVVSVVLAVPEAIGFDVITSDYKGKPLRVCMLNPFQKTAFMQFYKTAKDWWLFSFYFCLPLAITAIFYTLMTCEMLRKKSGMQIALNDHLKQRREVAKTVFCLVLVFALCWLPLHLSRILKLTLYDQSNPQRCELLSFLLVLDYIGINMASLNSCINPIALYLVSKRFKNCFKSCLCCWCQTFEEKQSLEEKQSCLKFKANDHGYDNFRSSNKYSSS
The experiment in a line: Concentration required to produce 50% inhibition of binding against ET B receptor obtained from rat brain membrane.

Assay [2] addresses T2, Endothelin-1 receptor (Rattus norvegicus, UniProt P26684).
T2 sequence (P26684 whole entry): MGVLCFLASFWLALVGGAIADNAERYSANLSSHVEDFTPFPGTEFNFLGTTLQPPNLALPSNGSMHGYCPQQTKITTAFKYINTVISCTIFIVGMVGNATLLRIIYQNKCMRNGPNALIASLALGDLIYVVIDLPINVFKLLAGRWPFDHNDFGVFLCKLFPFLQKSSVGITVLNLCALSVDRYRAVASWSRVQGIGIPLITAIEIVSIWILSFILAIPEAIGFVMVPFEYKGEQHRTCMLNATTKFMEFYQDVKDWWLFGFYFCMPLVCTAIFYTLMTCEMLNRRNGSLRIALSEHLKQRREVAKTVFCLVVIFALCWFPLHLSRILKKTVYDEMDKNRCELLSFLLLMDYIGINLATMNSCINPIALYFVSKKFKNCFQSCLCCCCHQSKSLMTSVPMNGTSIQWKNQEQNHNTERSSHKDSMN
The experiment in a line: Concentration required to produce 50% inhibition of binding against ET A receptor obtained from rat thoracic aortic membrane.

One may read the pIC50 as the IC50 on a negative log10 scale, so that one unit is a factor of ten. Higher therefore signals a low IC50.

For `CC[C@H](C)[C@H](NC(=O)[C@H](CC(=O)O)NC(=O)[C@H](CC(C)C)NC(=O)[C@H](Cc1cnc[nH]1)NC(=O)[C@H](CS)NC(=O)[C@H](Cc1ccccc1)NC(=O)[C@H](Cc1ccc(O)cc1)NC(=O)[C@@H](NC(=O)[C@H](CS)NC(=O)[C@H](CCC(=O)O)NC(=O)[C@H](CCCCN)NC(=O)[C@H](CC(=O)O)NC(=O)[C@H](CCSC)NC(=O)[C@H](CC(C)C)NC(=O)[C@H](CO)NC(=O)[C@H](CO)NC(=O)[C@H](CS)NC(=O)[C@H](CO)NC(=O)[C@@H](N)CS)C(C)C)C(=O)N[C@@H](C(=O)N[C@@H](Cc1c[nH]c2ccccc12)C(=O)O)c1ccccc1` [Endothelin-1 analogue], the figures for the pIC50 in assay [1] and in assay [2] were 8.6 and 6.85, respectively.
Consider `CC[C@H](C)[C@H](NC(=O)[C@H](CC(=O)O)NC(=O)[C@H](CC(C)C)NC(=O)[C@H](Cc1cnc[nH]1)NC(=O)[C@H](CS)NC(=O)[C@H](Cc1ccccc1)NC(=O)[C@H](Cc1ccc(O)cc1)NC(=O)[C@@H](NC(=O)[C@H](CS)NC(=O)[C@H](CCC(=O)O)NC(=O)[C@H](CCCCN)NC(=O)[C@H](CC(=O)O)NC(=O)[C@H](CCSC)NC(=O)[C@H](CC(C)C)NC(=O)[C@H](CO)NC(=O)[C@H](CO)NC(=O)[C@H](CS)NC(=O)[C@H](CO)NC(=O)[C@@H](N)CS)C(C)C)C(=O)N[C@@H](C)C(=O)N[C@@H](Cc1c[nH]c2ccccc12)C(=O)O` [Endothelin-1 analogue], for which the pIC50 in assay [1] was 9.4; in assay [2], 7.53.
Take `CC[C@H](C)[C@H](NC(=O)[C@H](CC(=O)O)NC(=O)[C@H](CC(C)C)NC(=O)[C@H](Cc1cnc[nH]1)NC(=O)[C@H](CS)NC(=O)[C@H](Cc1ccccc1)NC(=O)[C@H](Cc1ccc(O)cc1)NC(=O)[C@@H](NC(=O)[C@H](CS)NC(=O)[C@H](CCC(=O)O)NC(=O)[C@H](CCCCN)NC(=O)[C@H](CC(=O)O)NC(=O)[C@H](CCSC)NC(=O)[C@H](CC(C)C)NC(=O)[C@H](CO)NC(=O)[C@H](CO)NC(=O)[C@H](CS)NC(=O)[C@H](CO)NC(=O)[C@@H](N)CS)C(C)C)C(=O)N[C@@H](C(=O)N[C@@H](Cc1c[nH]c2ccccc12)C(=O)O)C1CCCCC1` [Endothelin-1 analogue]: the negative logarithm of the IC50 (pIC50) in assay [1] amounted to 9.59; in assay [2], 7.04.
Regarding `CC[C@@H](C)[C@H](NC(=O)[C@H](CC(=O)O)NC(=O)[C@H](CC(C)C)NC(=O)[C@H](Cc1cnc[nH]1)NC(=O)[C@H](CS)NC(=O)[C@H](Cc1ccccc1)NC(=O)[C@H](Cc1ccc(O)cc1)NC(=O)[C@@H](NC(=O)[C@H](CS)NC(=O)[C@H](CCC(=O)O)NC(=O)[C@H](CCCCN)NC(=O)[C@H](CC(=O)O)NC(=O)[C@H](CCSC)NC(=O)[C@H](CC(C)C)NC(=O)[C@H](CO)NC(=O)[C@H](CO)NC(=O)[C@H](CS)NC(=O)[C@H](CO)NC(=O)[C@@H](N)CS)C(C)C)C(=O)N[C@H](CC(C)C)C(=O)N[C@@H](Cc1c[nH]c2ccccc12)C(=O)O` [Endothelin-1 analogue], the results for the pIC50 in assay [1] and in assay [2] were 9.94 and 7.97, respectively.
